Results published in patent publication US20250011781A1, “METHODS AND COMPOSITIONS TARGETING NUCLEUS ACCUMBENS-ASSOCIATED PROTEIN-1 FOR TREATMENT OF AUTOIMMUNE DISORDERS AND CANCERS” (THE TEXAS A&M UNIVERSITY SYSTEM, priority 2021, published 2025).

Tests used:
[1] = tested on: mouse CD8+ T cells; test: mouse CD8+ T cells cultured in CM from NAC1 KO B16-OVA cells supplemented with LA; format: cell-based; settings: 2 mM or 5 mM LA
Protocol: Next, mouse CD8^+ T cells in the CM from NAC1 KO mouse B16-OVA cells were cultured and the medium was supplemented with or without 2 mM or 5 mM LA. The addition of LA reduced the production of cytokines including TNF-alpha and IFN-gamma and increased the expression of PD-1 and TIM-3 of CD8^+ T cells (FIGS. 9A-9D). […] In parallel, NAC1 KO tumor cells were transfected with an LDHA expression retroviral vector or a retroviral backbone to overexpress LDHA in NAC1 KO B16-OVA. The mouse CD8^+ T cells in the CM were cultured from NAC1 KO B16-OVA cells overexpressing LDHA (NAC1 KO LDHA OE) or an empty control (NAC1 KO Mock). The overexpression of LDHA conferred NAC1 KO mouse tumor cells with the ability to suppress the production of cytokines and increased expression of PD-1 (FIGS. 9I-9L) and apoptosis (FIGS. 9M-9P) of mouse cytotoxic CD8^+ T cells.
In vitro analysis of CD8^+ T cells. For cytotoxicity analysis, after 24 hours of activation 5×10^5 CD8^+ T cells were cultured with WT B16-OVA and NAC1 KO B16-OVA tumor cells in the ratio of 1:5 and 1:10 respectively. Cytotoxicity was measured by the CytoTox 96 Non-Radioactive Cytotoxicity Assay from Promega (#G1780, Madison, Wisconsin, USA). For cytokine expression analysis, the CD8^+ T cells were cultured with the conditional medium (CM) that was collected from WT B16-OVA and NAC1 KO B16-OVA melanoma cells for 12 hours. Before harvesting the cells, the cells were blocked with the Monensin Solution from BioLegend (#420701, San Diego, California, USA) for 4 hours. For apoptosis analysis, after 12 hours of activation the CD8^+ T cells were incubated with the CM that was collected from WT B16-OVA and NAC1 KO B16-OVA cells for 12 hours, in the absence or presence of L-LA from Sigma-Aldrich (St Louis, MI). […]
Flow Cytometric analysis. […] Stained cell populations were acquired by LSRFortessa from BD Biosciences (Franklin, New Jersey, USA), and the results were analyzed by using FlowJo software from Tree Star (Ashland, Oregon, USA).

[2] = target: T1, NAC1 (Homo sapiens, UniProt Q96RE7); settings: cited from earlier work
T1 sequence (Q96RE7 1-527): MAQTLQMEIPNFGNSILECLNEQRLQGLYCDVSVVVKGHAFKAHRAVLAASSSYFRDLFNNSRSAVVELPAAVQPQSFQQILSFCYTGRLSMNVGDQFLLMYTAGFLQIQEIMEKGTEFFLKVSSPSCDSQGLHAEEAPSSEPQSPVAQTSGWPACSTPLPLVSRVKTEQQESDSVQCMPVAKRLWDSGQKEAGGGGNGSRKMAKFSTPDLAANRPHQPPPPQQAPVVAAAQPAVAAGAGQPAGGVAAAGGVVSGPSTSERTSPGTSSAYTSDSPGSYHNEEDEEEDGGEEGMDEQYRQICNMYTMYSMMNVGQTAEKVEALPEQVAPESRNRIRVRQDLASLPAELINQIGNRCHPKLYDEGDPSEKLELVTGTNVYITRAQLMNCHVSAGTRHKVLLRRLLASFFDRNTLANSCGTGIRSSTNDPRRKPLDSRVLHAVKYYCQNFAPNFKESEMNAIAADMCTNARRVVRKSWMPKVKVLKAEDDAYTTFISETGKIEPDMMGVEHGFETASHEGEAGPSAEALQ

[3] = tested on: tumor growth; settings: cited from earlier work
[4] = tested on: Tregs; test: treatment of Tregs with pro-inflammatory cytokines; format: cell-based, mouse
Protocol: T cell culture. T cells were cultured in 48-well plates containing 1 ml RPMI 1640 (Invitrogen) with 10% fetal calf serum (Omega Scientific, CA). T cell isolation kits including mouse CD4^+ (#130-104-454), CD8a^+ (#130-104-075) and CD4^+ CD25^+ Treg (#130-091-041), T cell activation/expansion kit (#130-093-627) and Treg expansion kit (#130-095-925) were purchased from the Miltenyi Biotec (Auburn, CA). Recombinant mouse TGF-β (#763104), IL-10 (#575106), and TNF-α (#575206) were obtained from BioLegend (San Diego, CA).

## CC(O)C(=O)O (stereo not drawn) [LA, lactic acid]
[1]
  apoptosis determined by Annexin V staining: higher percentage of apoptosis
  expression of PD-1 and TIM-3 of CD8+ T cells: increased
  production of cytokines including TNF-alpha and IFN-gamma: reduced

## CC(C)(C)c1ccc(OCC(=O)NCCNC(=O)COc2ccc(C(C)(C)C)cc2)cc1 [NIC3]
[2]
  NAC1 homodimerization: can interrupt NAC1 homodimerization
[3]
  antitumor activity: shows antitumor activity

## TNF-α
[4]
  FoxP3 and acetylated FoxP3 in Tregs: evident downregulation
  NAC1 expression in Tregs: robust upregulation

B1: IL-10: recombinant mouse cytokine from BioLegend (protein, UniProt P18893 19-178, looked up)
Interleukin-10: SRGQYSREDNNCTHFPVGQSHMLLELRTAFSQVKTFFQTKDQLDNILLTDSLMQDFKGYLGCQALSEMIQFYLVEVMPQAEKHGPEIKEHLNSLGEKLKTLRMRLRRCHRFLPCENKSKAVEQVKSDFNKLQDQGVYKAMNEFDIFINCIEAYMMIKMKS
[4]
  FoxP3 and acetylated FoxP3 in Tregs: evident downregulation
  NAC1 expression in Tregs: robust upregulation
